These results are taken from ChEMBL document CHEMBL4351013, “Carboxamides vs. methanimines: Crystal structures, binding interactions, photophysical studies, and biological evaluation of (indazole-5-yl)methanimines as monoamine oxidase B and acetylcholinesterase inhibitors” (Eur J Med Chem, 2019).

Series [1] can be described thus: Stability of the compound in dry MeOH at 1 mM measured under daylight for 62 days by LC/ESI-MS analysis. The series is classed as physicochemical. Conditions: 1488 h, 1000 µM; call rule not given here.
The species entered for another series is Homo sapiens. The series is described as follows: Selectivity index, ratio of IC50 for human recombinant MAO-A expressed in baculovirus infected BTI-TN-5B1-4 cells to IC50 for human recombinant MAO-B expressed in baculovirus infected BTI-TN-5B1-4 cells.
Series [2] in a line: Stability of the compound in DMSO at 50 uM measured under daylight exposure for 76 days by UV-visible spectra analysis. The series is classed as physicochemical. Conditions: 1824 h.
For series [3], the target named is T1, Amine oxidase [flavin-containing] A (Homo sapiens, UniProt P21397).
T1 sequence (P21397 whole entry): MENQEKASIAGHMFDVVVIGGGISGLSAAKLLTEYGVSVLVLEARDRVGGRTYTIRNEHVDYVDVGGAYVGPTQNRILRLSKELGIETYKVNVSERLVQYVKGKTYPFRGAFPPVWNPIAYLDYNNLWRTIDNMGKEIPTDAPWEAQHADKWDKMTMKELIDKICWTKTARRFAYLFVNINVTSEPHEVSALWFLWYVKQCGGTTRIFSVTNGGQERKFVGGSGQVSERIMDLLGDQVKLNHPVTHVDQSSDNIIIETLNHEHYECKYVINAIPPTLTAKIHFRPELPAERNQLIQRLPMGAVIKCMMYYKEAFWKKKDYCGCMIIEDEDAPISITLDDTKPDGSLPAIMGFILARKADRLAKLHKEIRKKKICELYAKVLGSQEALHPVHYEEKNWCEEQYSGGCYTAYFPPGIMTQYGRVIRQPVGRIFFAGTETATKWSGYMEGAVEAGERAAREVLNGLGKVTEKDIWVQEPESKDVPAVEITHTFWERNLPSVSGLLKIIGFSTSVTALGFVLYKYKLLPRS
The series is described as follows: biochemical.
Description: Inhibition of human recombinant MAO-A expressed in baculovirus infected BTI-TN-5B1-4 insect cells assessed as decrease in H2O2 production using p-tyramine as substrate incubated for 20 mins by horse-radish peroxidase/amplex red-based fluorescence method

Series [4] can be described thus: Stability of the compound in dry MeOH at 1 to 10 mM measured under daylight exposure for 24 to 96 hrs by LC/ESI-MS analysis. The series is classed as physicochemical. Conditions: 10000 µM.
A short description of series [5]: Stability of the compound in dry MeOH assessed as dimers at 1 mM measured under daylight exposure for >96 hrs by LC/ESI-MS analysis. Format: physicochemical. Conditions: 1000 µM.
A short description of series [6]: Stability of the compound in MeOH at 50 uM measured under daylight exposure for 3 days by UV-visible spectra analysis. The series is classed as physicochemical. Conditions: 72 h.
Series [7] has as its target T2, Amine oxidase [flavin-containing] B (Homo sapiens, UniProt P27338).
T2 sequence (P27338 whole entry): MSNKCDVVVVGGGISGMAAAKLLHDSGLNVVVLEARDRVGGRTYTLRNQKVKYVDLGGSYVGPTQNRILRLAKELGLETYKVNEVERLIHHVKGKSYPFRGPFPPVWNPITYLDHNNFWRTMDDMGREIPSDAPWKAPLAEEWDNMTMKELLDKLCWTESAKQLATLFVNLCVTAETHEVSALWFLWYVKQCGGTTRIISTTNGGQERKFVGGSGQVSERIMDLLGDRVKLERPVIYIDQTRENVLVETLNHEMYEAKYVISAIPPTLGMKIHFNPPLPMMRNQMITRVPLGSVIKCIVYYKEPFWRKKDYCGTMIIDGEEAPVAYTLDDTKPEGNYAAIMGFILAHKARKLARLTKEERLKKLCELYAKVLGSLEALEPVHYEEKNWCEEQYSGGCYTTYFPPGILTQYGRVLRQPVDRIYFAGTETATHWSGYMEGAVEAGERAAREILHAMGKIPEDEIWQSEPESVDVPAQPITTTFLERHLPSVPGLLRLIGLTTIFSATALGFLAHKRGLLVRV
The series is described as follows: biochemical. Format: cell-based, BTI-TN-5B1-4.
Description: Inhibition of human recombinant MAO-B expressed in baculovirus infected BTI-TN-5B1-4 insect cells assessed as decrease in H2O2 production using p-tyramine as substrate incubated for 20 mins by horse-radish peroxidase/amplex red-based fluorescence method

In series [8] the target is T2, Amine oxidase [flavin-containing] B. The series is described as follows: Potency index, ratio of selegiline IC50 to compound IC50 for human recombinant MAO-B expressed in baculovirus infected BTI-TN-5B1-4 insect cells using p-tyramine as substrate.
A short description of series [9]: Stability of the compound in ACN at 50 uM measured under daylight exposure for 76 days by UV-visible spectra analysis. Format: physicochemical. Conditions: 1824 h.
Series [10] in a line: Stability of the compound in dry MeOH assessed as compound crystallization at 10 mM measured under daylight for 43 hrs by LC/ESI-MS analysis. The series is classed as physicochemical. Conditions: 10000 µM.
The target of series [11] is Cholinesterase (Homo sapiens) (UniProt P06276). As to the kind of experiment: Inhibition of BuChE in human serum using S-butyrylthiocholine iodide as substrate at 100 uM preincubated with enzyme for 10 mins followed by substrate addition measured for 15 mins by Ellman's method relative to control. The series is classed as cell-free.
Cholinesterase (Homo sapiens), sequence (P06276 whole entry): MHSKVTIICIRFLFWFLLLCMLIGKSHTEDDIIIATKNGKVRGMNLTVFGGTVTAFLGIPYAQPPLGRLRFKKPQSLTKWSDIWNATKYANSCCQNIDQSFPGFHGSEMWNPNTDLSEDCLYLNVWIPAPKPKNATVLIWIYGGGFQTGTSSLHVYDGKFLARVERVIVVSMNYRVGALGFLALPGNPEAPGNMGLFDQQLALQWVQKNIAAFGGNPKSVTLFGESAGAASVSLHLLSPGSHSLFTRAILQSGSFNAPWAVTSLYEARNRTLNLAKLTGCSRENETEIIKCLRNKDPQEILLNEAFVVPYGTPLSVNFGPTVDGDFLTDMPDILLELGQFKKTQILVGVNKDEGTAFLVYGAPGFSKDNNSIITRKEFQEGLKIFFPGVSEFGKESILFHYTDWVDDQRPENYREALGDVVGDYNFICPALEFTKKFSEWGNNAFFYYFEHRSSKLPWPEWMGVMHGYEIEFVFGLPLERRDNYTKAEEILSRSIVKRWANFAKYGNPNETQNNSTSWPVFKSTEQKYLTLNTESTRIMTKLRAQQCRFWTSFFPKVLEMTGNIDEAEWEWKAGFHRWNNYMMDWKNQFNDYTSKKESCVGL
A short description of series [12]: Stability of the compound in MeOH assessed as compound purity level at 50 uM measured under daylight exposure for 76 days by LC/ESI-MS analysis. Format: physicochemical. Conditions: methanol; read-out: Stability.
Series [13] has as its target T2, Amine oxidase [flavin-containing] B. As to the kind of experiment: Competitive inhibition of human recombinant MAO-B expressed in baculovirus infected BTI-TN-5B1-4 insect cells using p-tyramine as substrate by Dixon- plot analysis.
The target is the same in series [14]. The series is described as follows: Competitive inhibition of human recombinant MAO-B expressed in baculovirus infected BTI-TN-5B1-4 insect cells using p-tyramine as substrate by Lineweaver-Burk plot analysis.
Series [15] in a line: Cytotoxicity against human HepG2 cells assessed as cell viability at 50 uM measured after 72 hrs by MTT assay relative to control. The series is classed as cell-based. Conditions: read-out: Activity.
A further series relates to HepG2. The series is described as follows: Cytotoxicity against human HepG2 cells assessed as mitochondrial dysfunction at 25 to 50 uM. Format: cell-based. Conditions: hepg2, 50 µM.
The target in a further series is Acetylcholinesterase (Homo sapiens, UniProt P22303). As to the kind of experiment: Inhibition of AChE in human erythrocytes using acetylthiocholine iodide as substrate preincubated with enzyme for 10 mins followed by substrate addition measured for 15 mins by Ellman's method. Format: cell-based.
Acetylcholinesterase, sequence (P22303 whole entry): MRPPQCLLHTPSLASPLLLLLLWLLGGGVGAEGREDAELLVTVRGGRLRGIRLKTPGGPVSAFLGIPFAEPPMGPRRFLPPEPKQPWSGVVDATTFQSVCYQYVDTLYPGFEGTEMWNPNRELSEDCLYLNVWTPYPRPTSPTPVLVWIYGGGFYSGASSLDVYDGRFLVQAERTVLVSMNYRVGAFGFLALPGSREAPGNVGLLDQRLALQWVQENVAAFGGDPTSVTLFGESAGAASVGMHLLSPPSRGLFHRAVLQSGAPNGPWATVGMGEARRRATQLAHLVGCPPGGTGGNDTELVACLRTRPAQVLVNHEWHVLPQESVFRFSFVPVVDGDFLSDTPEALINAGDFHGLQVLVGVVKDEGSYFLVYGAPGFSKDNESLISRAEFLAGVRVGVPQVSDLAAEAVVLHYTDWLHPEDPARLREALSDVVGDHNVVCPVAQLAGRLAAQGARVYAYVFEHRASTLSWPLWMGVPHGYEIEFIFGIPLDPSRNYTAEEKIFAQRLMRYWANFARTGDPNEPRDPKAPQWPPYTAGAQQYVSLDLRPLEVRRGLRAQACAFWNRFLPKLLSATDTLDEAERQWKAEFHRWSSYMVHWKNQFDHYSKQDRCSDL

For `Clc1cc(/N=C/c2ccc3[nH]ncc3c2)cnc1Cl`, the Stability result in series [1] is “Unstable”; in [2] it was “Stable”; in series [4] it was “Stable”; in [5] it was “Unstable”; in series [6], “Stable”; in series [9], “Stable”. The Stability entry in series [10] is “Unstable”. In addition, the Ratio IC50 in the series listed under Homo sapiens is greater than 7810; in [8], 4.3. Moreover, the results for the IC50 in series [3] and in [7] were greater than 10 µM and 1.28 nM, respectively. The molecule also returned a Ki in series [7] of 0.57 nM. In [11], this molecule gave an inhibition of 9.64%. The remaining at 1824 h, 50 µM in [12] was determined as 68.1%.

In the case of `O=C(Nc1cnc(Cl)c(Cl)c1)c1ccc2[nH]ncc2c1`, the Ratio IC50 in the series listed under Homo sapiens is greater than 1840. In series [3], the IC50 was greater than 10 µM. Moreover, in series [7], the Ki amounted to 2.39 nM. Moreover, the inhibition in series [11] was 9.23%.

The molecule `O=C(Nc1ccc(F)c(Cl)c1)c1ccc2[nH]ncc2c1` registered an inhibition in series [11] of 7.21%.

With `COCCn1ncc2cc(/C=N/c3ccc(Cl)c(Cl)c3)ccc21`, the Ratio IC50 in the series listed under Homo sapiens was 3160. Moreover, in series [3], the IC50 is greater than 10 µM. In [7], this molecule came in with an IC50 of 1.29 nM and a Ki of 0.57 nM. For the same molecule, in series [11], the inhibition came to 2.27%.

For the molecule `Cn1ncc2cc(/C=N/c3ccc(Cl)c(Cl)c3)ccc21`, the figures for the Ki in [13] and in series [7] were 0.63 nM and 0.46 nM, respectively. Besides, the Ratio IC50 in the series filed under Homo sapiens was 9710. Moreover, in series [3], the IC50 is greater than 10 µM. Also, in series [11], the inhibition was 8.57%. Besides, in series [14], the “inhibition (INH)” value is “Active”.

For `Fc1ccc(/N=C/c2ccc3[nH]ncc3c2)cc1Cl`, the Ratio IC50 in the series listed under Homo sapiens is 4760. Moreover, the IC50 in series [3] is greater than 10 µM. The molecule also showed a Ki in series [7] of 0.93 nM. In series [11], this molecule returned an inhibition of 4.56%.

With `Clc1ccc(/N=C/c2ccc3[nH]ncc3c2)cc1Cl`, the Stability result in series [2] and in series [9] was “Stable” in each case. Also, in [3], the IC50 was greater than 10 µM. For the same molecule, the viability at 72 h, 50 µM in series [15] came out at 80.6%. Also, in the series on HepG2, the Activity result is “Non-Toxic”. This molecule also registered an inhibition in series [11] of 9.01%.

Take `O=C(Nc1ccc(Cl)c(Cl)c1)c1ccc2[nH]ncc2c1`: the results for the Ratio IC50 (in the series listed under Homo sapiens; in series [8]) were 17100 and 9, respectively. For the same molecule, the viability at 72 h, 50 µM in series [15] was determined as 66.3%. Moreover, the Activity result with HepG2 was “Non-Toxic”. The molecule further yielded an inhibition in [11] of 11.3%.

For the molecule `Fc1cc(/N=C/c2ccc3[nH]ncc3c2)ccc1Cl`, in the series filed under Homo sapiens, the Ratio IC50 came out at 5240. For the same molecule, the Ki in series [7] was found to be 0.84 nM. The molecule also had an inhibition in [11] of 6.97%.

In the case of `COCCn1ncc2cc(C(=O)Nc3ccc(Cl)c(Cl)c3)ccc21`, the Ratio IC50 in the series listed under Homo sapiens was greater than 2660. In addition, the inhibition constant (Ki) in series [3] was determined as 0.48 nM. The same molecule came in with an inhibition in series [11] of 9.58%.

Consider `O=C(Nc1ccc(Cl)c(F)c1)c1ccc2[nH]ncc2c1`, for which, in the series listed under Homo sapiens, the Ratio IC50 stood at 15000. Besides, the Ki in [7] was 0.29 nM. Further, in series [11], the inhibition came to 2.23%.

`Cn1ncc2cc(C(=O)Nc3ccc(Cl)c(Cl)c3)ccc21`: the IC50 on Acetylcholinesterase worked out at 78.3 µM. In addition, the inhibition in [11] was 11.1%.
